{
  "source": "patent US20210057047A1",
  "about": "“IN-SILICO METHOD FOR DESIGNING A (D)-POLYPEPTIDE LIGAND” (THE GOVERNING COUNCIL OF THE UNIVERSITY OF TORONTO, priority 2018, published 2021)",
  "key": {"in vitro": {"assay": "in vitro", "type": "in vitro ADME", "details": "isolated enzyme proteinase k, pH 7.4", "protocol": "(§1) Stocks of 20 μM peptide in 200 μL total volume (10 mM Tris-base, 10 mM NaCl, pH 7.4) were supplemented with 5 μM CaCl2) and 30 uL removed for the untreated T0 sample. Proteinase K (ProtK, Bioshop) was then added to a final concentration of 100 μg/mL. Samples were incubated at 37° C. and 30 μL removed after each time point and protease activity blocked by the addition of 10 mM PMSF (200 mM stock dissolved in isopropanol). Protease inactivated samples were frozen at −20° C. until further use. Digestions were repeated three times. Frozen samples were supplemented with 8 μL sample loading buffer (4× NuPAGE, ThermoFisher Scientific), boiled ([…]) for 10 minutes, and centrifuged (12 000 rpm, 10 min) prior to loading the gel (12% NuPAGE Bis-Tris (ThermoFisher Scientific) with MES running buffer). Gels were run at 200 V for […] and stained using Coomassie Brilliant Blue dye. Densitometry of bands was determined using ImageJ software (40) with back ground subtraction. All samples were normalized to their respective untreated sample (T0)."}, "Proteinase K (ProtK)": {"biological_target": "T1, Proteinase K (ProtK) (Parengyodontium album, UniProt P06873)", "T1 construct": "purchased Bioshop", "T1 sequence (P06873 106-384)": "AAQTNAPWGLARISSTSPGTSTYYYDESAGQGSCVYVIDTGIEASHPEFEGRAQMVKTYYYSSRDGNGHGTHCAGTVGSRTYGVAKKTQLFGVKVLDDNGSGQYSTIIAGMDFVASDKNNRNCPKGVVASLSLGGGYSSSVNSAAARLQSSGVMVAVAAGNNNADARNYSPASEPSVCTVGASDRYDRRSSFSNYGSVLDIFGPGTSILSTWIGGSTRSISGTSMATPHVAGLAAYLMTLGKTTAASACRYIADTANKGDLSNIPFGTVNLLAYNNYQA", "assay": "in vitro", "type": "in vitro ADME", "protocol": "as §1"}, "GLP2R": {"biological_target": "T2, GLP2R (Homo sapiens, UniProt O95838)", "T2 construct": "expressed in transfected cells; host or cells: HEK293", "T2 sequence (O95838 1-553)": "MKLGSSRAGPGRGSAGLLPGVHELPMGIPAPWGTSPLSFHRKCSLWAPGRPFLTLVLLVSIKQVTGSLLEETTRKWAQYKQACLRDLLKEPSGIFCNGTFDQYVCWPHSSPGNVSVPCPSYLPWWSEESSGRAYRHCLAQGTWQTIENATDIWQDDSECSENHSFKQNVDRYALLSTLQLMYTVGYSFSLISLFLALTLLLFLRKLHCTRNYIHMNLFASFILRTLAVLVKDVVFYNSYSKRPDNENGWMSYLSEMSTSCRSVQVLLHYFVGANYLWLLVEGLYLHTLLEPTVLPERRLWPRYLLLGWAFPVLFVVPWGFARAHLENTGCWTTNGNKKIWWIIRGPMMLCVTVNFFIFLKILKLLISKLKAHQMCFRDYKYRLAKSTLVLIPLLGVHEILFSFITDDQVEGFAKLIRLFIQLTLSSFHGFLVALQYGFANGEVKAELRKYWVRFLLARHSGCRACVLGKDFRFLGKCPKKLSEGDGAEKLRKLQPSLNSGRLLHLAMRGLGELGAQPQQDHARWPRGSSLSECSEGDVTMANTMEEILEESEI", "assay": "CRE-luciferase reporter assay in HEK293 cells stably expressing GLP2R", "type": "cell-based", "protocol": "This activates protein kinase A (PKA) to phosphorylate and activate cAMP response element-binding protein (CREB). […] All of the (L)-GLP-2 is degraded in about 1 hr, while more than 90% of the (D)-analog is still detectable at 6 hours.\nFIG. 14 is a series of charts and experiments showing the activity and protease degradation of (L)- and (D)-GLP2 polypeptides. (A) HEK293 cells stably expressing GLP2R and CRE-luciferase were stimulated with different concentrations of (L)- and (D)-GLP2 peptides. Luciferase activity was measured. The experiments were performed in triplicate. (B) Sample gel images of (L) and (D)-GLP-2 peptides treated with Proteinase K (ProtK) over 5 hours. Gels were stained with Coomassie Brilliant Blue dye and band densitometry calculated using ImageJ (40) with background subtraction. (C) Quantification of remaining peptide post ProtK treatment in 60 min intervals. Intensities of peptide bands were normalized to the intensity of the untreated peptide (T0) and converted to a percentage relative to T0. […] Error bars are reporting standard error. Data represent the average of 3 independent experiments."}, "[1]": {"biological_target": "T3, parathyroid receptor (PTH1R) (Homo sapiens, UniProt Q03431)", "T3 construct": "expressed in transfected cells; host or cells: HEK293", "T3 sequence (Q03431 27-593)": "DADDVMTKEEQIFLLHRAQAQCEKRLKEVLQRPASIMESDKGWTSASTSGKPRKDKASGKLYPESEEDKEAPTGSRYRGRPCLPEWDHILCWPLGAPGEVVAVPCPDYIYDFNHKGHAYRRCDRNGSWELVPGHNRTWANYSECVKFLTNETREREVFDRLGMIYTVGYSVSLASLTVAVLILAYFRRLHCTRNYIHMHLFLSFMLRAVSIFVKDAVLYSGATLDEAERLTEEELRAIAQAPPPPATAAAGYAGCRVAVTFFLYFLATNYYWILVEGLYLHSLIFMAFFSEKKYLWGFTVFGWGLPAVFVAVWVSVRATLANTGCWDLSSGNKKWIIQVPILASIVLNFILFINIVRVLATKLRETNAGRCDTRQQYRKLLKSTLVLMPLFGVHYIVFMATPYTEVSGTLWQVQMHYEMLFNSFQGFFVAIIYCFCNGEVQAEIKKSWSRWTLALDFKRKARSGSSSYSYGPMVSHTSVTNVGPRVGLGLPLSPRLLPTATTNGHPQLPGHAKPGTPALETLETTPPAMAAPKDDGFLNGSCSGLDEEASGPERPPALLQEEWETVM", "assay": "CRE-luciferase reporter assay in HEK293 cells stably expressing PTH1R", "type": "cell-based", "protocol": "This activates protein kinase A (PKA) to phosphorylate and activate cAMP response element-binding protein (CREB). […] All of the (L)-PTH is degraded in under 1 hr, while more than 85% of the (D)-analog is still detectable at 6 hours.\n(a) (L)-PTH structure and sequence with hotspots highlighted in grey and junctions in black. (b) (D)-PDB match structures and sequences. (c) Final (D)-PTH construction from match sequences and RI (d) HEK293 cells stably expressing PTH1R and CRE-luciferase were stimulated with different concentrations of (L)-, (D)-PTH peptides and Forskolin. Luciferase activity was measured. The experiments were performed in triplicate. (e) Sample gel images of (L)- and (D)-PTH peptides treated with Proteinase K (ProtK) over 5 hours. Gels were stained with Coomassie Brilliant Blue dye and band densitometry calculated using ImageJ (40) with background subtraction. (f) Quantification of remaining peptide post ProtK treatment in […] intervals. Intensity of peptide bands were normalized to the intensity of the untreated peptide (T0) and converted to a percentage relative to T0. […] Error bars are reporting standard error. Data represent the average of 3 independent experiments."}},
  "note": "Square brackets hold non-standard residues; d marks the D form. Peptide text beside a SMILES is read from it.",
  "data": [
    {"compound": "CC[C@@H](C)[C@@H](NC(=O)[C@@H](C)NC(=O)[C@@H](C)NC(=O)[C@H](NC(=O)[C@@H](C)NC(=O)[C@@H](Cc1ccccc1)NC(=O)[C@@H](Cc1c[nH]c2ccccc12)NC(=O)[C@@H](Cc1ccccc1)NC(=O)CNC(=O)[C@H](NC(=O)[C@@H](CCCNC(=N)N)NC(=O)[C@@H](CC(=O)O)NC(=O)[C@H](NC(=O)[C@@H](CCCCN)NC(=O)[C@H](NC(=O)[C@H](NC(=O)[C@H](N)CC(=O)O)[C@H](C)O)[C@H](C)CC)[C@H](C)O)[C@H](C)CC)C(C)C)C(=O)N[C@H](CC(C)C)C(=O)N[C@@H](C(=O)N[C@H](CC(C)C)C(=O)N[C@H](CC(C)C)C(=O)N[C@H](CCCCN)C(=O)N[C@H](CCSC)C(=O)N[C@H](CCSC)C(=O)N[C@H](CCC(=O)O)C(=O)N[C@H](CCC(=O)O)C(=O)N[C@H](Cc1ccccc1)C(=O)N[C@@H](C(=O)NCC(=O)N[C@H](CC(=O)O)C(=O)N[C@H](C)C(=O)N[C@H](Cc1c[nH]cn1)C(=O)O)C(C)C)C(C)C", "note": "[(D)-GLP2] (H-[dD][dT][dI][dK][dT][dD][dR][dI]G[dF][dW][dF][dA][dV][dA][dA][dI][dL][dV][dL][dL][dK][dM][dM][dE][dE][dF][dV]G[dD][dA][dH]-OH; N-terminus and C-terminus assumed)", "values": [
      {"measurement": "remaining at 6 h, 20 µM", "setting": "in vitro", "value": "> 90", "unit": "%"},
      {"measurement": "degradation by ProtK (in words)", "setting": "Proteinase K (ProtK)", "value": "persists after 5 hours"},
      {"measurement": "activation of GLP2R, potency and efficacy (in words)", "setting": "GLP2R", "value": "potency and efficacy comparable to (L)-GLP-2"}
    ]},
    {"compound": "CC[C@@H](C)[C@@H](NC(=O)[C@@H](CCC(=O)O)NC(=O)[C@@H](CCCNC(=N)N)NC(=O)[C@@H](CCSC)NC(=O)[C@@H](CC(C)C)NC(=O)[C@@H](CC(=O)O)NC(=O)CNC(=O)[C@@H](CCCCN)NC(=O)[C@@H](Cc1c[nH]cn1)NC(=O)[C@@H](CC(N)=O)NC(=O)[C@@H](CCCNC(=N)N)NC(=O)[C@@H](Cc1c[nH]c2ccccc12)NC(=O)[C@@H](CCC(=O)O)NC(=O)[C@H]1CCCN1C(=O)[C@@H](CC(C)C)NC(=O)[C@@H](Cc1ccc(O)cc1)NC(=O)[C@@H](CCSC)NC(=O)[C@@H](CC(C)C)NC(=O)[C@@H](CC(C)C)NC(=O)[C@@H](CCSC)NC(=O)CNC(=O)[C@H](NC(=O)[C@@H](CO)NC(=O)[C@@H](CC(=O)O)NC(=O)[C@@H](C)NC(=O)[C@H](NC(=O)[C@@H](C)NC(=O)[C@@H](CC(C)C)NC(=O)CNC(=O)[C@@H](C)N)C(C)C)C(C)C)C(=O)N[C@H](CCCNC(=N)N)C(=O)N[C@H](CO)C(=O)N[C@H](CCCNC(=N)N)C(=O)N[C@H](CCCCN)C(=O)N[C@@H](C(=O)N[C@H](CO)C(=O)O)C(C)C", "note": "[(D)-PTH] (H-[dA]G[dL][dA][dV][dA][dD][dS][dV]G[dM][dL][dL][dM][dY][dL][dP][dE][dW][dR][dN][dH][dK]G[dD][dL][dM][dR][dE][dI][dR][dS][dR][dK][dV][dS]-OH; N-terminus and C-terminus assumed)", "values": [
      {"measurement": "degradation by ProtK (in words)", "setting": "Proteinase K (ProtK)", "value": "persists after 5 hours"},
      {"measurement": "activation of PTH1R, potency and efficacy (in words)", "setting": "[1]", "value": "potency and efficacy comparable to (L)-PTH and Forskolin"}
    ]}
  ]
}
